Experimental data from patent US7094760B2, “Peptides for treatment of inflammation and shock” (Salpep Biotechnology, Inc., priority 1996, dated 2006).
“Also recorded” adds a separate entry of the source.

How the values were obtained:
[1] = system: LPS (Salmonella typhosa)-induced hypotension in unoperated rats; assay: endotoxin (LPS)-induced hypotension, unoperated rats; type: in vivo, rat
Description: The animal model of endotoxic shock used involves intravenous injection of endotoxin (3.5 mg/kg of lipopolysaccharide (LPS) from Salmonella typhosa) into pentobarbital-anaesthetized Sprague-Dawley rats, to produce a fall in mean arterial blood pressure within 3 to 5 minutes. The endotoxin was injected slowly over 1 min. via the jugular vein, and mean arterial blood pressure in mm mercury (MABP) was monitored continuously for 60 min, with the average blood pressure being calculated at 15, 30, 45 and 60 min. Studies were performed on unoperated rats and rats with their submandibular glands removed (sialadenectomized).
The results shown in Table 1 are the averages of three different experiments using the protocol defined above. The data shown represent the average decrease in MABP (dec MABP) and the % Decrease in MABP over the 60 minutes following LPS administration. SGP-S (100μg/kg) and SGP-T (100 μg/kg) were administered 90 min. before LPS. […] Neither SGP-T nor SGP-S, when given prior to the LPS challenge, had appreciable effects on MABP.
Overall, SGP-T reduced by 60% the decrease and the percent decrease in MABP induced by endotoxin, relative to pre-LPS values. SGP-S, on the other hand, had no effect on the shock induced by endotoxin in unoperated rats.
The dose-response relationship of the inhibitory effect of SGP-T and SGP-S on endotoxin-induced hypotension was also examined and the results are shown in FIG. 1.

[2] = system: isolated jejunal segments from egg albumin-sensitised rats; assay: antigen-induced contraction of isolated jejunal segments, Examples 3 and 6; design: species or system rat
Description: SGP-T, at doses as low as 6.8×10^−7M, reduced antigen induced contractions of these isolated intestinal tissues by 60% (data not shown).
Analogues and fragments of SGP-T were tested for their ability to inhibit antigen (egg albumin)-induced intestinal contractions, using isolated jejunal segments from egg albumin-sensitised rats, as described in Example 3.

rat neutrophils = assay: superoxide anion production in vitro, rat neutrophils; type: cell-based
Description: Neutrophils (10^6) were suspended in PBS buffer of the following composition: NaCl 137 mM, KCl 2.7 mM, Na2HPO4, 8.1 mM, KH2PO4 1.47 mM, CaCl2 1.19 mM, MgCl2 0.54 mM, glucose 7.5 mM and cytochrome C 1.5 mM (Sigma Chemical Co. St. Louis, […].) incubated at 37 C. Each sample was read along with a reference sample containing 1440 units of superoxide dismutase (Sigma) in a spectrophotometer (Hitachi, U200 spectrophotometer). The rate of superoxide production in response to 10^−7M phorbol myristate acetate (PMA) or 10^−5 M N-formyl-methionyl-leucyl-phenylalanine (fMLP) was then inferred from the slope. (Derian et al., (1996), Biochemistry 35(4): 1265–9).
Neutrophils obtained either from carrageenin-soaked sponges implanted subcutaneously in rats, or from the blood of healthy human volunteers, were preincubated with various doses of SGP-T for 30 minutes, then stimulated with 10^−7M PMA and the rate of superoxide anion production determined. At doses less than 1 μM, SGP-T inhibited superoxide anion production by both rat and human neutrophils, although the rat neutrophils were approximately 10-fold less sensitive than human neutrophils to this inhibitor effect (FIG. 6). At higher doses of the peptide(>1 μM), an enhancement of superoxide anion production was evident with human neutrophils.
At 0.001 and 0.01 μM SGP-T, O2^− production was inhibited by 15 to 20% in human neutrophils, while 10-fold higher concentrations were required for such inhibition with rat neutrophils. Much higher concentrations of SGP-T (10 and 20 μM) stimulated O2^− production by human neutrophils. Each value is presented as the mean ±SEM, and the number of experiments was between 6 and 12.

[3] = system: ovalbumin-sensitized Hooded-Listar rats; assay: anaphylactic perturbation of intestinal motility, Example 9; type: in vivo, rat; settings: intravenously at 100 μg/kg, 20 min before challenge
Description: Animals and Tissue Preparation: Male Hooded-Listar rats were sensitized to egg albumin (ovalbumin; OA). Two weeks after sensitization, the animals had electrodes implanted into the muscle of the jejunum for recording muscle electrical activity. One week later, the fasted rats received SGP-T or an analogue, either intravenously (injection via penile vein under halothane anaesthesia) or orally (via gastric tube), 20 min before challenge with OA, or bovine serum albumin as control, by intragastric administration.
The disruption of intestinal migrating myoelectric complexes (MMCs) (Scott et al., (1988), J. Physiol., v. 255, pp. G505–511), a measure of intestinal activity, and the presence of diarrhea were used as biological measurements of anaphylaxis.

[4] = system: ovalbumin-sensitized Sprague-Dawley rats, submandibular glands removed; assay: anaphylactic hypotension and heart function (VPSP, dP/dt), Example 10; type: in vivo, rat; settings: for integrated (average) decrease in VPSP over the 30 min: 10 min prior to antigen, saline control 46.2±6.5
Description: Methods: Sprague-Dawley rats (200–300 g) were sensitized with 1 mg ovalbumin and 50 ng Pertussin toxin (Sigma) (24) one month prior to experimentation. The submandibular glands were removed bilaterally 7 days prior to the experiment by previously described procedures (23). Rats were anesthetized with sodium pentobarbital (65 mg/kg) and a tracheal tube (PE240 polyethylene tubing) was inserted before performing further surgeries. The jugular vein was-cannulated for injection of ovalbumin antigen, which was given as a bolus (100 μg/kg) over 10 sec. The right carotid artery was cannulated and the cannula tip was slowly advanced into the left ventricle, as detected when diastolic pressure fell to near 0 mmHg. The ventricular cannula was connected to a TXD-310 transducer and heart function parameters were recorded using a Digi-Med Heart Performance Analyser (Micro-Med, Louisville, Ky.). The effects of anaphylaxis on heart function were analysed by comparing the changes in ventricular peak systolic pressure (VPSP), and in the rate of ventricular contraction during systole (dP/dt) and relaxation during distole (−dP/dt). Antigen was injected at 10 min. The anaphylactic response was followed for 30 min.
Very rapidly (within 1 min) after the intravenous injection of antigen into ovalbumin-sensitized rats, VPSP dropped and minimal ventricular pressures were measured at 5 min after initiation of the anaphylactic reaction.
To determine if anaphylaxis directly affected heart function, the percent changes in VPSP were plotted against percent changes in dP/dt and −dP/dt. […] By analysis of variance, the slopes of the regression lines of dP/dt and −dP/dt were not different from unity.

[5] = peptide 100 μg/kg 90 min before LPS 3.5 mg/kg iv

Substance: NH2-Thr-Asp-Ile-Phe-Glu-Gly-Gly-COOH (H-TDIFEGG-OH) [SGP-T, submandibular gland peptide T, TDIFEGG]
- effect on drop in MABP / shock induced by endotoxin [1]: reduced the drop in MABP
- optimal dose for reducing LPS-induced hypotension [1]: higher than in operated animals
- % Dec = percent decrease in MABP relative to MABPbef [1, 5]: −11.6%
- MABPaft = average MABP for 60 mins after LPS injection [1, 5]: 99.6 ± 3.8 mm Hg
- dec MABP = decrease in MABP after LPS relative to MABPbef [1, 5]: −13.6 ± 2.9 mm Hg
- reduction of the decrease and the percent decrease in MABP induced by endotoxin ([1]; relative to pre-LPS values): 60%
- Biological Activity = inhibition of antigen-induced jejunal contraction by test peptide [2]: +++ (+++ = highest inhibition (~60%))
- reduction of antigen induced contractions of isolated intestinal tissues ([2]; doses as low as 6.8×10^−7M): 60%
- superoxide anion production (rat neutrophils; doses less than 1 μM, 10^−7M PMA): inhibited
- sensitivity of rat neutrophils relative to human neutrophils (less sensitive) (rat neutrophils; inhibition of superoxide anion production): approximately 10 fold
- higher concentrations required for 15 to 20% inhibition versus human neutrophils (rat neutrophils; relative to 0.001 and 0.01 μM in human neutrophils): 10 fold
- intestinal anaphylaxis induced by OA [3]: prevented or reduced
- integrated (average) decrease in VPSP over the 30 min ([4]; 10 μg/kg): 16.7±8.3 mm Hg
- integrated (average) decrease in VPSP over the 30 min ([4]; 100 μg/kg): 15.9±8.0 mm Hg
- VPSP by the end of the experiment ([4]; 10 and 100 μg/kg, 30 min after antigen): attained pre-antigen values
- initial anaphylactic reaction (initial blood pressure drop) ([4]; FIG. 12): does not prevent
- sustained anaphylactic reaction ([4]; FIG. 12): does prevent
- drop in blood pressure elicited by the anaphylactic reaction ([4]; doses of 35 and 100 μg/kg): significantly reduced
- anaphylactic hypotension / decrease in VPSP provoked by antigen ([4]; injected 10 min prior to antigen (100 μg/kg)): protected the rats against anaphylactic hypotension; also recorded: reduced significantly
- protection against antigen elicited hypotension ([4]; lower (10 μg/kg) and higher (350 μg/kg) doses): Neither lower (10 μg/kg) nor higher doses (350 μg/kg) of SGP-T protected
